Data taken from patent US20030083376A1, “Depot preparations” (priority 2001, published 2003).

Columns and labels:
Assay type in all cases: physicochemical
[1] = Storage stability in soap; conditions: stored in the dark for about one month at room temperature
Text: (§1) The separate samples are then divided into portions.
The soap formulation below can be prepared in accordance with generally known methods. The data refer to percentages by weight.
The soap formulations A and B were stored in the dark for about one month at room temperature.

[2] = Storage stability in powder laundry detergent; conditions: after one month
Text: as §1

[3] = Hydrolysis rate in 1% strength aqueous soap solution, SPME headspace analysis
Protocol: To determine the hydrolysis rate, the depot preparation was added to a 1% strength aqueous soap solution, and the concentration of the depot preparation or of the free aldehyde was measured by SPME headspace analysis.

| SMILES | Storage stability [%] [1] [%] | storage stability [2] [%] | storage stability relative to the corresponding aldehyde [1] | time to complete hydrolysis [3] [min] |
| --- | --- | --- | --- | --- |
| CCCCCCC=O [Aldehyde C7, n-Heptanal] | 27 | 27 |  |  |
| CCCCCCC(OCCc1ccccc1)OC(C)=O (centres unmarked) [Example 5, 1-(2-Phenylethoxy)heptyl Acetate] | 93 | 93 | significantly greater storage stability | ≤ 5 |
| OCCc1ccccc1 [Phenylethyl alcohol, 2-Phenylethanol] | 91 | 91 |  |  |
